Source: ChEMBL document CHEMBL1201861, “Genomics of Drug Sensitity in Cancer screening data, Wellcome Trust Sanger Institute”

Assays:
Test in all cases: cells
LB2241-RCC = assay type: functional, cell-based, Homo sapiens; conditions: Homo sapiens, LB2241-RCC;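 also: cell viability assay measuring how strongly the cultured human renal carcinoma line is prevented from growing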
MOLT-4 = assay type: functional, cell-based, Homo sapiens; conditions: Homo sapiens, MOLT-4;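 also: growth inhibition of MOLT-4 cells, determined with a cell viability readout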
LAMA-84 = assay type: functional, cell-based, Homo sapiens; conditions: Homo sapiens, LAMA-84;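 also: growth inhibition of LAMA-84 cells, read out with a cell viability assay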
SH-4 = assay type: functional, cell-based; conditions: Homo sapiens;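 also: growth inhibition of SH-4 cells, read out with a cell viability assay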
HCC1187 = assay type: functional, cell-based, Homo sapiens; conditions: Homo sapiens, HCC1187;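 also: growth inhibition of HCC1187 cells, read out with a cell viability assay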
697 = assay type: functional, cell-based, Homo sapiens; conditions: Homo sapiens
L-363 = assay type: functional, cell-based, Homo sapiens; conditions: Homo sapiens, L-363
DEL = assay type: functional, cell-based, Homo sapiens; conditions: Homo sapiens, DEL;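 also: growth inhibition of the human DEL cell line, read out with a cell viability assay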
A704 = assay type: functional, cell-based; conditions: Homo sapiens;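 also: growth inhibition of human A704 cells, read out with a cell viability assay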
HOP-62 = assay type: functional, cell-based, Homo sapiens; conditions: Homo sapiens, HOP-62;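 also: cell growth inhibition determined with a viability assay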
OCUB-M = assay type: functional, cell-based; conditions: Homo sapiens;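 also: growth inhibition of the cancer cell line, read out through a cell viability assay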
LU-139 = assay type: functional, cell-based, Homo sapiens; conditions: Homo sapiens, LU-139
SHP77 = assay type: functional, cell-based, Homo sapiens, SHP-77; conditions: Homo sapiens, SHP77;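 also: growth inhibition of human SHP-77 cells measured by a cell viability assay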
LB771-HNC = assay type: functional, cell-based; conditions: Homo sapiens;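 also: growth inhibition of LB771-HNC human cells, read out with a cell viability assay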
K562 = assay type: functional, cell-based, Homo sapiens; conditions: Homo sapiens, K562
OCI-AML2 = assay type: functional, cell-based, Homo sapiens; conditions: Homo sapiens, OCI-AML2;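 also: growth inhibition of OCI-AML2 cells, read out with a cell viability assay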
NCI-H2126 = assay type: functional, cell-based, Homo sapiens; conditions: Homo sapiens, NCI-H2126;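 also: growth inhibition of the cancer cell line, determined with a cell viability readout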
SW684 = assay type: functional, cell-based, Homo sapiens; conditions: Homo sapiens, SW684; read-out: IC50;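 also: growth inhibition of human SW684 cells, measured by a cell viability assay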
TK-10 = assay type: functional, cell-based, Homo sapiens; conditions: Homo sapiens, TK-10;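 also: growth inhibition of TK-10 cells, read out in a cell viability assay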
SK-LMS-1 = assay type: functional, cell-based, Homo sapiens; conditions: Homo sapiens, SK-LMS-1;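 also: growth inhibition of human SK-LMS-1 cells, read out with a cell viability assay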
SF-126 = assay type: functional, cell-based, Homo sapiens; conditions: Homo sapiens, SF-126;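 also: growth inhibition of human SF126 cells, read out with a cell viability assay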
GAK = assay type: functional, cell-based, Homo sapiens; conditions: Homo sapiens, GAK;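 also: cell growth inhibition read out by a cell viability assay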
EOL1 = assay type: functional, cell-based, Homo sapiens; conditions: Homo sapiens, EOL1;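 also: growth inhibition of EoL-1 cells, read out by a cell viability assay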
MZ1-PC = assay type: functional, cell-based, Homo sapiens; conditions: Homo sapiens, MZ1-PC;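 also: cell viability assay measuring growth inhibition of human MZ1-PC cells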
MMAC-SF = assay type: functional, cell-based; conditions: Homo sapiens;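 also: growth inhibition of human MMAC-SF cells, read out with a cell viability assay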
A3-KAW = assay type: functional, cell-based, Homo sapiens; conditions: Homo sapiens, A3-KAW;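 also: growth inhibition of human A3-KAW cells, read out with a cell viability assay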
GI-1 = assay type: functional, cell-based, Homo sapiens; conditions: Homo sapiens, GI-1;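 also: growth inhibition of human GI-1 cells, measured with a cell viability readout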
OMC-1 = assay type: functional, cell-based, Homo sapiens; conditions: Homo sapiens, OMC-1;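 also: growth inhibition of the OMC-1 cell line, measured by a cell viability assay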
HT = assay type: functional, cell-based, Homo sapiens; conditions: Homo sapiens, HT
LB2518-MEL = assay type: functional, cell-based; conditions: Homo sapiens;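 also: growth inhibition of human LB2518-MEL cells, measured with a cell viability assay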
SW 962 = assay type: functional, cell-based, Homo sapiens; conditions: Homo sapiens, SW 962;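 also: growth inhibition of human SW962 cells, read out by a cell viability assay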
no-10 = assay type: functional, cell-based, Homo sapiens; conditions: Homo sapiens;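 also: growth inhibition of no-10 cells, read out with a cell viability assay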
HT-144 = assay type: functional, cell-based, Homo sapiens; conditions: Homo sapiens, HT-144
RPMI-8866 = assay type: functional, cell-based, Homo sapiens; conditions: Homo sapiens, RPMI-8866
COLO-684 = assay type: functional, cell-based, Homo sapiens; conditions: Homo sapiens, COLO-684
LS-123 = assay type: functional, cell-based, Homo sapiens; conditions: Homo sapiens, LS-123
ES4 = assay type: functional, cell-based, Homo sapiens; conditions: Homo sapiens, ES4;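 also: growth inhibition of human ES4 cells, read out by a cell viability assay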
NCI-H1299 = assay type: functional, cell-based; conditions: Homo sapiens;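 also: growth inhibition of human NCI-H1299 cells, read out by a cell viability assay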
SK-PN-DW = assay type: functional, cell-based, Homo sapiens; conditions: Homo sapiens, SK-PN-DW;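 also: growth inhibition measured with a viability assay on these cells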
U-266 = assay type: functional, cell-based, Homo sapiens; conditions: Homo sapiens, U-266
SK-MEL-2 = assay type: functional, cell-based, Homo sapiens; conditions: Homo sapiens, SK-MEL-2;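 also: growth inhibition of human SK-MEL-2 cells measured with a cell viability assay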
SCC-15 = assay type: functional, cell-based, Homo sapiens; conditions: Homo sapiens, SCC-15;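 also: growth inhibition of SCC-15 cells, read out with a cell viability assay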
RKO = assay type: functional, cell-based, Homo sapiens; conditions: Homo sapiens, RKO;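 also: growth inhibition of human RKO cells, read out with a cell viability assay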
RH-1 = assay type: functional, cell-based, Homo sapiens; conditions: Homo sapiens, RH-1;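 also: growth inhibition of human RH-1 cells, read out with a cell viability assay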
TE-1 = assay type: functional, cell-based, Homo sapiens; conditions: Homo sapiens, TE-1;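 also: growth inhibition of the human TE-1 cell line, read out with a cell viability assay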
BT-474 = assay type: functional, cell-based, Homo sapiens; conditions: Homo sapiens, BT-474
J-RT3-T3-5 = assay type: functional, cell-based, Homo sapiens; conditions: Homo sapiens, J-RT3-T3-5;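 also: cell viability assay measuring growth inhibition of human J-RT3-T3-5 cells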
CAS-1 = assay type: functional, cell-based, Homo sapiens; conditions: Homo sapiens, CAS-1;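 also: growth inhibition of CAS-1 cells, measured with a cell viability assay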
DJM-1 = assay type: functional, cell-based, Homo sapiens; conditions: Homo sapiens, DJM-1;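 also: growth inhibition of human DJM-1 cells, read out by a cell viability assay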
ES1 = assay type: functional, cell-based, Homo sapiens; conditions: Homo sapiens, ES1;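 also: growth inhibition of ES1 cells, read out with a cell viability assay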
IST-MEL1 = assay type: functional, cell-based, Homo sapiens; conditions: Homo sapiens, IST-MEL1;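 also: growth inhibition of the cell line, read out with a cell viability assay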

Q: How did the IC50 (LB2241-RCC) turn out when Cc1ccc(-n2nc(C(C)(C)C)cc2NC(=O)Nc2ccc(OCCN3CCOCC3)c3ccccc23)cc1 [DORAMAPIMOD] was run?
A: > 10000 nM

Q: What about the IC50 (MOLT-4) of the same compound?
A: > 10000 nM

Q: And the IC50 (LAMA-84)?
A: > 10000 nM

Q: And the IC50 (SH-4)?
A: > 10000 nM

Q: What about the IC50 (HCC1187) of the same compound?
A: > 10000 nM

Q: And the IC50 697?
A: > 10000 nM

Q: What about the IC50 (L-363) of the same compound?
A: > 10000 nM

Q: What about the IC50 (DEL) of the same compound?
A: > 10000 nM

Q: What about the IC50 (A704) of the same compound?
A: > 10000 nM

Q: And the IC50 (HOP-62)?
A: > 10000 nM

Q: What about the IC50 (OCUB-M) of the same compound?
A: > 10000 nM

Q: What about the IC50 (LU-139) of the same compound?
A: > 10000 nM

Q: What about the IC50 (SHP77) of the same compound?
A: > 10000 nM

Q: And the IC50 (LB771-HNC)?
A: > 10000 nM

Q: And the IC50 (K562)?
A: > 10000 nM

Q: And the IC50 (OCI-AML2)?
A: > 10000 nM

Q: And the IC50 (NCI-H2126)?
A: > 10000 nM

Q: What about the IC50 (SW684) of the same compound?
A: > 10000 nM

Q: What about the IC50 (TK-10) of the same compound?
A: > 10000 nM

Q: What about the IC50 (SK-LMS-1) of the same compound?
A: > 10000 nM

Q: And the IC50 (SF-126)?
A: > 10000 nM

Q: And the IC50 (EOL1)?
A: 348 nM

Q: What about the IC50 (MZ1-PC) of the same compound?
A: > 10000 nM

Q: What about the IC50 (MMAC-SF) of the same compound?
A: > 10000 nM

Q: And the IC50 (A3-KAW)?
A: > 10000 nM

Q: And the IC50 (GI-1)?
A: > 10000 nM

Q: And the IC50 (OMC-1)?
A: > 10000 nM

Q: And the IC50 (HT)?
A: > 10000 nM

Q: What about the IC50 (LB2518-MEL) of the same compound?
A: > 10000 nM

Q: What about the IC50 (SW 962) of the same compound?
A: > 10000 nM

Q: And the IC50 (no-10)?
A: > 10000 nM

Q: What about the IC50 (HT-144) of the same compound?
A: > 10000 nM

Q: What about the IC50 (RPMI-8866) of the same compound?
A: > 10000 nM

Q: What about the IC50 (COLO-684) of the same compound?
A: > 10000 nM

Q: And the IC50 (LS-123)?
A: > 10000 nM

Q: What about the IC50 (ES4) of the same compound?
A: > 10000 nM

Q: And the IC50 (NCI-H1299)?
A: > 10000 nM

Q: What about the IC50 (SK-PN-DW) of the same compound?
A: > 10000 nM

Q: What about the IC50 (U-266) of the same compound?
A: > 10000 nM

Q: And the IC50 (SK-MEL-2)?
A: > 10000 nM

Q: And the IC50 (SCC-15)?
A: > 10000 nM

Q: What about the IC50 (RKO) of the same compound?
A: > 10000 nM

Q: And the IC50 (RH-1)?
A: > 10000 nM

Q: What about the IC50 (TE-1) of the same compound?
A: > 10000 nM

Q: And the IC50 (BT-474)?
A: > 10000 nM

Q: What about the IC50 (J-RT3-T3-5) of the same compound?
A: > 10000 nM

Q: And the IC50 (CAS-1)?
A: > 10000 nM

Q: What about the IC50 (DJM-1) of the same compound?
A: > 10000 nM

Q: And the IC50 (ES1)?
A: > 10000 nM

Q: What about the IC50 (IST-MEL1) of the same compound?
A: > 10000 nM

Q: For COC(=O)[C@H](CCSC)NC(=O)c1ccc(NC[C@@H](N)CS)cc1-c1ccccc1, which IC50 (LB2241-RCC) is on record?
A: > 1020 nM

Q: And the IC50 (MOLT-4)?
A: > 1020 nM

Q: And the IC50 (LAMA-84)?
A: > 1020 nM

Q: And the IC50 (SH-4)?
A: > 1020 nM

Q: What about the IC50 (HCC1187) of the same compound?
A: > 1020 nM

Q: What about the IC50 697 of the same compound?
A: > 1020 nM

Q: What about the IC50 (L-363) of the same compound?
A: > 1020 nM

Q: What about the IC50 (DEL) of the same compound?
A: > 1020 nM

Q: What about the IC50 (A704) of the same compound?
A: > 1020 nM

Q: What about the IC50 (HOP-62) of the same compound?
A: > 1020 nM

Q: And the IC50 (OCUB-M)?
A: > 1020 nM

Q: And the IC50 (LU-139)?
A: > 1020 nM

Q: And the IC50 (SHP77)?
A: > 1020 nM

Q: What about the IC50 (LB771-HNC) of the same compound?
A: > 1020 nM

Q: And the IC50 (K562)?
A: > 1020 nM

Q: What about the IC50 (OCI-AML2) of the same compound?
A: > 1020 nM

Q: What about the IC50 (NCI-H2126) of the same compound?
A: > 1020 nM

Q: What about the IC50 (SW684) of the same compound?
A: > 1020 nM

Q: And the IC50 (TK-10)?
A: > 1020 nM

Q: And the IC50 (SK-LMS-1)?
A: > 1020 nM

Q: What about the IC50 (SF-126) of the same compound?
A: > 1020 nM

Q: What about the IC50 (GAK) of the same compound?
A: > 1020 nM

Q: What about the IC50 (EOL1) of the same compound?
A: > 1020 nM

Q: What about the IC50 (MZ1-PC) of the same compound?
A: > 1020 nM

Q: What about the IC50 (MMAC-SF) of the same compound?
A: > 1020 nM

Q: What about the IC50 (A3-KAW) of the same compound?
A: > 1020 nM

Q: And the IC50 (GI-1)?
A: > 1020 nM

Q: And the IC50 (OMC-1)?
A: > 1020 nM

Q: And the IC50 (HT)?
A: > 1020 nM

Q: What about the IC50 (LB2518-MEL) of the same compound?
A: > 1020 nM

Q: What about the IC50 (SW 962) of the same compound?
A: > 1020 nM

Q: And the IC50 (no-10)?
A: > 1020 nM

Q: And the IC50 (HT-144)?
A: > 1020 nM

Q: What about the IC50 (RPMI-8866) of the same compound?
A: > 1020 nM

Q: And the IC50 (COLO-684)?
A: > 1020 nM

Q: What about the IC50 (LS-123) of the same compound?
A: > 1020 nM

Q: What about the IC50 (ES4) of the same compound?
A: > 1020 nM

Q: What about the IC50 (NCI-H1299) of the same compound?
A: > 1020 nM

Q: What about the IC50 (SK-PN-DW) of the same compound?
A: > 1020 nM

Q: What about the IC50 (U-266) of the same compound?
A: > 1020 nM

Q: And the IC50 (SK-MEL-2)?
A: > 1020 nM

Q: And the IC50 (SCC-15)?
A: > 1020 nM

Q: What about the IC50 (RKO) of the same compound?
A: > 1020 nM

Q: And the IC50 (RH-1)?
A: > 1020 nM

Q: What about the IC50 (TE-1) of the same compound?
A: > 1020 nM

Q: What about the IC50 (BT-474) of the same compound?
A: > 1020 nM

Q: What about the IC50 (J-RT3-T3-5) of the same compound?
A: > 1020 nM

Q: And the IC50 (CAS-1)?
A: > 1020 nM

Q: And the IC50 (DJM-1)?
A: > 1020 nM

Q: What about the IC50 (ES1) of the same compound?
A: > 1020 nM

Q: And the IC50 (IST-MEL1)?
A: > 1020 nM
